According to article PMC10793205, “Differential transmetallation of complexes of the anti-cancer thiosemicarbazone, Dp4e4mT: effects on anti-proliferative efficacy, redox activity, oxy-myoglobin and oxy-hemoglobin oxidation” (Chemical Science, 2023):
“Also recorded” adds a separate entry of the source.

Experiments:
[1] = test system: H2DCF; assay: Redox activity: H2DCF oxidation to DCF (cell-free, L-cysteine/H2O2); format: biochemical; details: 10 μM, pH 7.4 and pH 5, no added CuCl2
Procedure: Redox activity in cells was examined using an established in vitro method examining 2′,7′-dichlorodihydrofluorescein (H2DCF) oxidation to fluorescent 2′,7′-dichlorofluorescein (DCF) at cytosolic pH (pH 7.4 using HBSS buffer) relative to lysosomal pH (pH 5; acetate buffer; Fig. 5).[25,26,28,42,46] To these buffers containing the complexes, L-cysteine (100 μM) was added as a reducing agent, followed by H2DCF (5 μM). Then, hydrogen peroxide (H2O2; 100 μM) was added to initiate hydroxyl radical generation. Both [Cu(DpC)Cl2] and [Cu(DpC)2] were used as positive controls due to their documented redox activity.[28,42] In contrast, the ligand, DpC, was implemented as a negative control, as it is redox inert.[28,42] As an additional control, the established Cu chelator, tetrathiomolybdate (TM), was utilized to remove Cu from the thiosemicarbazone complexes to indicate its role in their redox activity.[27,28,42] Additionally, UV-vis spectroscopy (300–700 nm) of the same solution for each complex was also performed to understand both the oxidation of H2DCF and the formation of fluorescent DCF upon excitation at 503 nm (Fig. S20A–F and S21A–F ^†). […]
ROS Generation Analysis with H 2DCF-DA
The generation of reactive oxygen species (ROS) was assessed by examining the oxidation of H2DCF.2, 8, 13, 14 Solutions containing CuCl2, TM, DpC, Dp4e4mT, [Fe(DpC)2]+, [Cu(DpC)Cl2], [Cu(DpC)2] and the Dp4e4mT complexes were prepared at a concentration of 10 µM in either HBSS (pH 7.4) or 150 mM acetate buffer (pH 5) to simulate the conditions of the cytosol and lysosome, respectively.2, 8, 14, 15 The H2DCF was prepared by deacetylation of DCFH-DA (Sigma-Aldrich) through alkaline hydrolysis using NaOH. 16
In these prepared solutions, L-cysteine (100 µM) was added as a reducing agent and then H2DCF (5 µM) added. The initiation of hydroxyl radical generation was achieved by the addition of hydrogen peroxide (H2O2; 100 µM). As a comparative benchmark, HBSS or acetate buffer containing L-cysteine, H2DCF, and H2O2, but lacking ligands or metal complexes, was employed as a control. Fluorescence measurements were carried out using a CLARIOstar Plus microplate reader (BMG LABTECH, Australia) with an excitation wavelength of 485 nm and an emission wavelength of 530 nm. 8, 14

[2] = molecular target: T1, oxy-Hb in intact human erythrocytes (Homo sapiens, UniProt P68871+P69905); assay: Oxidation of oxy-Hb in intact human erythrocytes; format: cell-based; details: 10 μM, 3 h/37 °C
T1 construct: Physiologically, oxy-Hb is found in erythrocytes; endogenous in cells; host or cells: intact human erythrocytes from fresh blood of healthy donors
Procedure: Fig. 7 (A and B) Investigation of the effects of Dp4e4mT and its Fe(III), Co(III), Ni(II), Cu(II), Zn(II), Ga(III), and Pd(II) complexes versus DFO, Dp44mT, DpC and their Fe(III) complexes (10 μM) on met-Hb generation (% zero time) after an incubation of 1–3 h/20 °C with purified oxy-Hb (40 μM). (C) Investigation of the effects of Dp4e4mT and its Fe(III), Co(III), Ni(II), Cu(II), Zn(II), Ga(III), or Pd(II) complexes relative to the positive controls DFO, Dp44mT, DpC, and their Fe(III) complexes (10 μM) on oxy-Hb oxidation in intact human erythrocytes after a 3 h/37 °C incubation. Results are mean ± SD (3 experiments).
Physiologically, oxy-Hb is found in erythrocytes, and in the current investigation, the ligands and complexes (10 μM) were incubated with intact human erythrocytes for 3 h/37 °C to assess their effects on oxy-Hb oxidation (Fig. 7C). As expected from our previous studies,[28,39] […]
In experiments examining the activity of the agents, all complexes were dissolved in 1,2-propanediol, then diluted to 10 µM in PBS (pH 7.2). […]
1800; Shimadzu, Kyoto, Japan). Concentrations of met-Mb and met-Hb, as well as reduced-Mb and reduced-Hb, were determined at 409 nm and 435 nm, respectively. Concentrations of oxy-Mb and oxy-Hb were determined at 544 nm and 582 nm, respectively. 17 Oxidation of Oxy-Hb in Human Erythrocytes
Oxidation of oxy-Hb in human erythrocytes was performed by standard methods using fresh blood from healthy donors after collection in Vacutainer® collection tubes (BD, Plymouth, UK).8 Erythrocytes centrifuged (480 xg/5 min/4°C) and then washed in HBSS, and subsequently resuspended in this buffer. Incubation of the erythrocytes (15% hematocrit) in the absence or presence of the agents (10 μM) was performed for 3 h/37°C. The erythrocytes were […]

[3] = Cyclic voltammetry (redox potentials); format: physicochemical; details: 1 mM in MeCN/H2O 7 : 3 (v/v) + 0.1 M Et4NClO4, sweep rate 100 mV s^−1
From the text: The redox potentials of Fe(III)- and Cu(II)-thiosemicarbazone complexes have been extensively studied and are important for understanding intracellular redox activity and ROS generation.[23,27,28,42] Considering this, the electrochemical properties of [Fe(Dp44mT)2]^+, [Fe(DpC)2]^+, [Fe(Dp4e4mT)2]^+, [Co(Dp4e4mT)2]^+, [Ni(Dp4e4mT)2], [Cu(Dp4e4mT)Cl], [Ga(Dp4e4mT)2]^+, and [Pd(Dp4e4mT)Cl] were investigated with cyclic voltammetry in MeCN : H2O (70 : 30 v/v; Fig. 4A and B). This solvent system was implemented to provide sufficient solubility and because it has been used by our laboratories previously to measure potentials of thiosemicarbazone complexes enabling effective comparison.[28,45,57–59]
Fig. 4 Cyclic voltammograms of: (A) [Fe(Dp44mT)2]^+, [Fe(DpC)2]^+, and [Fe(Dp4e4mT)2]^+. (B) [Co(Dp4e4mT)2]^+, [Ni(Dp4e4mT)2], [Cu(Dp4e4mT)Cl], [Ga(Dp4e4mT)2]^+, and [Pd(Dp4e4mT)Cl] (1 mM in MeCN/H2O 7 : 3 (v/v) + 0.1 M Et4NClO4) at a sweep rate of 100 mV s^−1. The voltammograms were recorded using a glassy carbon working electrode versus a […] (NHE). […]
Cyclic voltammograms were acquired for the Fe(III), Co(III), Ni(II), Cu(II), Ga(III), and Pd(II) complexes of Dp4e4mT utilizing a BAS100B/W potentiostat, equipped with an aqueous Ag/AgCl reference electrode, a glassy carbon working electrode, and a Pt wire auxiliary […]
electrode. […]

[4] = molecular target: T2, oxy-Mb (Homo sapiens, UniProt P02144); assay: Oxidation of purified oxy-Mb to met-Mb (UV-vis); format: biochemical; details: 10 μM agent, oxy-Mb 40 μM, 3 h incubation, 20 °C
T2 sequence (P02144 1-154): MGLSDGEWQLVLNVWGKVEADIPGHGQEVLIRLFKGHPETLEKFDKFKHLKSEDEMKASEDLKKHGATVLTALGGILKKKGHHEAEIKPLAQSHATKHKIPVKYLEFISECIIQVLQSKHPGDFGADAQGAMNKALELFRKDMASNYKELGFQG
From the text: As such, it was important to examine the effect of the Dp4e4mT complexes on oxy-Hb and oxy-Mb oxidation (Fig. 6 and 7). Comparisons were made to three controls, namely DFO, Dp44mT, and DpC, as well as their Fe(III) complexes. […] In contrast, the Fe(III) complexes of Dp44mT and DpC were positive controls, as they induce oxidation of oxy-Mb.[28,39,42]
Fig. 6 (A and B) Investigation of the effects of Dp4e4mT and its Fe(III), Co(III), Ni(II), Cu(II), Zn(II), Ga(III), and Pd(II) complexes versus the positive controls DFO, Dp44mT, DpC and their Fe(III) complexes (10 μM) on met-Mb generation (% zero time) after an incubation of 1–3 h/20 °C with purified oxy-Mb (40 μM). Results are mean ± SD (3 experiments).
Spectroscopic Examination of Met-Mb and Met-Hb Formation from Oxy-Mb and Oxy- […]
Oxy-Mb and oxy-Hb solutions were prepared following established protocols.8, 17 In brief, solutions of reduced Mb and Hb in PBS (pH 7.2) were prepared by adding 1.2 mL of Na2S2O4 (12 mM) to 38 mL of met-Mb and met-Hb solution (40 μM). 17 Subsequently, oxy-Mb and oxy-Hb were generated by gently passing 150 mL of oxygen (from an air-filled syringe) through the solution containing reduced Mb and Hb, effectively eliminating any residual Na2S2O4. Following this, the oxy-Mb and oxy-Hb solutions were passed through a PD-10 column prepacked with 8.3 mL of Sephadex G-25 and equilibrated with PBS (pH 7.2). 17 In experiments examining the activity of the agents, all complexes were dissolved in 1,2-propanediol, then diluted to 10 µM in PBS (pH 7.2). The experiments were conducted over incubations of 0 to 3 h with the agents. UV-Vis spectra covering the range of 300 to 700 nm were recorded at a temperature of 20°C using a Shimadzu UV−Vis spectrophotometer (UV-1800; Shimadzu, Kyoto, Japan). Concentrations of met-Mb and met-Hb, as well as reduced-Mb and reduced-Hb, were determined at 409 nm and 435 nm, respectively. Concentrations of oxy-Mb and oxy-Hb were determined at 544 nm and 582 nm, respectively. 17

T1 sequence (P69905 2-142 limits assumed): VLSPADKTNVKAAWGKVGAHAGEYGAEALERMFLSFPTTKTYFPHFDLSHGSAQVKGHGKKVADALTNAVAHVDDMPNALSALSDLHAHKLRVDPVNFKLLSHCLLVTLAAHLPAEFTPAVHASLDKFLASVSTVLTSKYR
T1 sequence (P68871 2-147 limits assumed): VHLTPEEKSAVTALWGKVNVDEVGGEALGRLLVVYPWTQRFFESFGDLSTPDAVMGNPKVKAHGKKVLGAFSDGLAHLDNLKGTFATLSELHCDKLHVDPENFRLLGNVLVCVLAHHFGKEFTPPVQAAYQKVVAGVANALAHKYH

SMILES	DCF fluorescence (H2DCF oxidation) of agent alone [1]	oxy-Hb oxidation in erythrocytes versus the control (in words) [2]	Redox potential (mV vs. NHE) [3]	oxy-Mb oxidation (met-Mb generation) [4]	further results
[Cl][Cu][Cl] [CuCl2, reference compound]	significantly (p < 0.0001–0.01) increased DCF fluorescence				
CC(=O)N([O-])CCCCCNC(=O)CCC(=O)N([O-])CCCCCNC(=O)CCC(=O)N([O-])CCCCCN.[Fe+3] [DFO Fe(III) complex, reference compound]		did not induce any significant (p > 0.05) increase in oxy-Hb oxidation			
[SH-].[SH-].[S]=[Mo]=[S] [TM, tetrathiomolybdate, reference compound]	did not significantly (p > 0.05) increase DCF fluorescence				
CN(C(=S)NN=C(c1ccccn1)c1ccccn1)C1CCCCC1.[Cl-].[Cl-].[Cu+2] [[Cu(DpC)Cl2], reference compound]	significantly (p < 0.0001–0.01) increased DCF fluorescence; also recorded: greatest efficacy at increasing DCF fluorescence				
CN(C)C([S-])=NN=C(c1ccccn1)c1ccccn1.CN(C)C([S-])=NN=C(c1ccccn1)c1ccccn1.[Fe+3] [[Fe(Dp44mT)2]^+, reference compound]			+166 mV vs. NHE	222 % of the control	oxy-Hb oxidation to met-Hb in erythrocytes ([2]; control 0.5%): 34.4 % of the total
CN(C([S-])=NN=C(c1ccccn1)c1ccccn1)C1CCCCC1.CN(C([S-])=NN=C(c1ccccn1)c1ccccn1)C1CCCCC1.[Fe+3] [[Fe(DpC)2]^+, reference compound]		did not induce any significant (p > 0.05) increase in oxy-Hb oxidation	+149 mV vs. NHE	161 % of the control	
